Measured values from patent US9433607B2, “Composition for prevention or treatment of cancer comprising N-methylenenaphtho[2,1-b]furan-2-carbohydrazide derivatives as an active ingredient” (KOREA RESEARCH INSTITUTE OF BIOSCIENCE AND BIOTECHNOLOGY, priority 2012, dated 2016).
pIC50: −log10 of the molar value. Each block holds one molecule with its values, some of them ahead of it.

Legend:
HeLa cell line = experiment: Anti-proliferative activity in HeLa cells (MTT assay); type: cell-based; conditions: HeLa cell line; for pIC50: Homo sapiens
Experimental: Particularly, HeLa cell line (ATCC, USA) was treated with the compounds of Table 1 respectively, and then IC50 (the half maximal inhibitory concentration) was investigated (Table 1).
HeLa cells were treated with 100 nM, 250 nM, 500 nM and 1 μM of ethyl(2-methyl-3{(E)-[(naphtho[2,1-b]furan-2-ylcarbonyl)hydrazono]methyl}-1H-indole-1-yl)acetate or DMSO for 4 days. Then, the cell growth was confirmed by MTT assay. All the obtained numbers were calculated by normalizing the value of Day 0. The data presents the mean value obtained from the assay performed in triplicate.
Particularly, HeLa cells were distributed in a 96-well plate at the density of 2×10^3 cells/well. The cells were treated with DMSO or the compound of the present invention, to which MTT reagent was added at the concentration of 10 μl/well. 2 hours later, OD450 was measured, which became the value of Day 0. 4 days later, MTT reagent was added thereto again. 2 hours later, OD450 was measured. The data presents the mean value obtained from the assay performed in triplicate.

MCF7/ADR = experiment: Cytotoxicity MTT assay, multi-drug resistant MCF7/ADR; type: cell-based; conditions: for pIC50: Homo sapiens, NCI/ADR-RES, 96 h, MCF7/ADR, MTT, 4 days; for resistance factor (number in the bracket): ratio of IC50 of MCF7/ADR to IC50 of parent MCF7
Experimental: (§1) Particularly, K562, MCF7 (Bio-Evaluation Center, Korea Research Institute of Bioscience and Biotechnology, Korea), and the multi-drug resistant cell lines thereof, K562/ADR and MCF7/ADR (Bio-Evaluation Center, Korea Research Institute of Bioscience and Biotechnology, Korea) were cultured in microtiter plate (1-3×10^3 cells/well). Then, the cells were treated with ethyl(2-methyl-3{(E)-[(naphtho[2,1-b]furan-2-ylcarbonyl)hydrazono]methyl}-1H-indole-1-yl)acetate, doxorubicin, or taxol, followed by culture for 4 days. Cytotoxicity was investigated by MTT assay by the same manner as described in Example <1-2>. IC50 was calculated by long-dose response curve. The data presents the mean value obtained from the assay performed in triplicate (Table 3).
(§2) The resistance factor of the multi-drug resistant cell line indicates the ratio of IC50 of the multi-drug resistant cell line to IC50 of the parent cell line showing no resistance, which was presented as a number in the bracket.

MCF7 = experiment: Cytotoxicity MTT assay, MCF7; type: cell-based; conditions: Homo sapiens, 96 h, 4 days
Experimental: as §1

K562 = experiment: Cytotoxicity MTT assay, K562; type: cell-based; conditions: Homo sapiens, 96 h, 4 days
Experimental: as §1

K562/ADR = experiment: Cytotoxicity MTT assay, multi-drug resistant K562/ADR; type: cell-based; conditions: for pIC50: Homo sapiens, 96 h, K562/ADR, MTT, 4 days; for resistance factor (number in the bracket): ratio of IC50 of K562/ADR to IC50 of parent K562
Experimental: as §1, §2

HeLa cells = experiment: Immunofluorescence of intracellular microtubules and chromosomes; type: cell-based; conditions: 17 hours, Taxol 100 μM, nocodazole 200 ng/ml, compound 5 μM
Experimental: To investigate the effect of ethyl(2-methyl-3{(E)-[(naphtho[2,1-b]furan-2-ylcarbonyl)hydrazono]methyl}-1H-indole-1-yl)acetate on intracellular microtubules, HeLa cells were treated with DMSO, Taxol (100 μM), nocodazole (200 ng/ml), or ethyl(2-methyl-3{(E)-[(naphtho[2,1-b]furan-2-ylcarbonyl)hydrazono]methyl}-1H-indole-1-yl)acetate (5 μM) for 17 hours. After fixing the cells, the cells were immuno-stained with Alexa Fluor 488-conjugated anti-tubulin antibody and Hoechst 33342 to confirm α-tubulin and chromosomes.

[1] = test system: FVB/N mouse induced with skin tumor; experiment: DMBA/TPA induced skin tumor model; type: in vivo
Experimental: In this invention, the male FVB/N mice (6-7 weeks, Jackson Laboratory, USA) were raised under the condition of 12 hr bright lighting/12 hr dim lighting at the temperature of 24±2° C. with the humidity of 50±10% with water and feed provided freely. The care and process of the test animal was reviewed and approved by Institutional Animal Care and Use Committee (IACUC), Korea Research Institute of Bioscience and Biotechnology (KRIBB). DMBA (7,12-dimethylbenz[α]anthracene), TPA (12-O-tetradecanoylphorbol-13-acetate) and cholchicine were purchased from Sigma-Aldrich, and the synthesized ethyl(2-methyl-3{(E)-[(naphtho[2,1-b]furan-2-ylcarbonyl)hydrazono]methyl}-1H-indole-1-yl)acetate was provided from Dr. Thimmegowda.
Particularly, the dorsal skin of the said FVB/N mouse was shaved two days before the experiment. 100 μg of DMBA was added to 0.2 ml of acetone, which was treated to the mouse by single-local administration for 1 week to induce tumor. 5 fig of TPA was added to 0.2 ml of acetone, which was treated to the above mouse induced with tumor […] for 15 weeks to grow the tumor. 500 nM of ethyl(2-methyl-3{(E)-[(naphtho[2,1-b]furan-2-ylcarbonyl)hydrazono]methyl}-1H-indole-1-yl)acetate or cholchicine was dissolved in 0.2 ml of acetone, which was treated to the above mouse locally for 30 minutes each time for 15 weeks. Each group was composed of at least 10 mice and total 4 groups were prepared:
Group 1: DMBA and acetone treated group (negative control)
Group 2: DMBA and TPA treated group (positive control)
Group 3: DMBA/TPA and cholchicine treated group (experimental group 1)
Group 4: DMBA/TPA and ethyl(2-methyl-3{(E)-[(naphtho[2,1-b]furan-2-ylcarbonyl)hydrazono]methyl}-1H-indole-1-yl)acetate treated group (experimental group 2).
In addition, skin tumor such as papilloma was checked every week during the whole period of experiment. The tumor in the size of at least 2 mm was judged as positive. 15 weeks later, the mice were sacrificed with CO2. The skin tumor was extracted for histopathological/biochemical analysis.
The average number and the volume of tumor in each group were calculated.
Each mouse group was treated with different materials by the same manner as described in Example <8-2>, followed by observation for 15 weeks, and then the number of mice having skin tumor was counted. Tumor development rate was presented as %.
The mouse induced with skin tumor by the same manner as described in Example <8-2> was treated with DMBA, and then the induced tumors were observed and weighed for 15 weeks to produce the average weight of tumor.

Compound: COc1cccc2c1C(=O)c1c(O)c3c(c(O)c1C2=O)C[C@@](O)(C(=O)CO)C[C@@H]3O[C@H]1C[C@H](N)[C@H](O)[C@H](C)O1 [Doxorubicin]
pIC50 (MCF7/ADR): 2.28 | resistance factor (number in the bracket) (MCF7/ADR): 98 | pIC50 (MCF7): 4.28 | pIC50 (K562): 5.48 | pIC50 (K562/ADR): 2.42 | resistance factor (number in the bracket) (K562/ADR): 1153

Compound: O=C(N/N=C/c1ccc([N+](=O)[O-])o1)c1cc2c(ccc3ccccc32)o1 [H, (E)-N′-((5-nitrofuran-2-yl)methylene)naphtho[2,1-b]furan-2-carbohydrazide]
pIC50 (HeLa cell line): 5.27

Compound: O=C(N/N=C/c1ccc(OCc2ccccc2)cc1)c1cc2c(ccc3ccccc32)o1 [I, (E)-N′-(4-(benzyloxy)benzylidene)naphtho[2,1-b]furan-2-carbohydrazide]
pIC50 (HeLa cell line): 5.44

Compound: COc1cccc(/C=N/NC(=O)c2cc3c(ccc4ccccc43)o2)c1O [J, (E)-N′-(2-hydroxy-3-methoxybenzylidene)naphtho[2,1-b]furan-2-carbohydrazide]
pIC50 (HeLa cell line): 5.40

Compound: CC(=O)O[C@H]1C(=O)[C@@]2(C)[C@H]([C@H](OC(=O)c3ccccc3)[C@]3(O)C[C@H](OC(=O)[C@H](O)[C@@H](NC(=O)c4ccccc4)c4ccccc4)C(C)=C1C3(C)C)[C@]1(OC(C)=O)CO[C@@H]1C[C@@H]2O [Taxol]
effect on microtubules and chromosomes (immunostaining) (HeLa cells): strengthened the polymerization of tubulin so that multi-polar spindle fibers with condensed chromosomes were produced | pIC50 (MCF7/ADR): 2.79 | resistance factor (number in the bracket) (MCF7/ADR): 377 | pIC50 (MCF7): 5.37 | pIC50 (K562): 5.70 | pIC50 (K562/ADR): 2.74 | resistance factor (number in the bracket) (K562/ADR): 911

Compound: COc1cc2c(c(OC)c1OC)-c1ccc(OC)c(=O)cc1[C@@H](NC(C)=O)CC2 [cholchicine, reference compound]
number of skin tumor ([1]; 500 nM in 0.2 ml acetone, local, 15 weeks): significantly reduced | weight of tumor compared with positive control ([1]; 15 weeks): significantly lighter | average volume of skin tumor reduced compared with positive control ([1]; 15 weeks, 500 nM local): 31.5% | decrease of average number of skin tumor compared with positive control ([1]; 15 weeks, 500 nM local): 2.86 times | week to which tumor formation was postponed ([1]; tumor of at least 2 mm, positive control from 8th week): 9 week

Compound: COC(=O)Nc1nc2ccc(C(=O)c3cccs3)cc2[nH]1 [nocodazole, reference compound]
effect on microtubules and chromosomes (immunostaining) (HeLa cells): chromosomes were not fully condensed and microtubules were destroyed

Further molecules by rising pIC50 (HeLa cell line), results first:

pIC50 (HeLa cell line): 5.51
Compound: Cc1ccc(-c2ccc(/C=N/NC(=O)c3cc4c(ccc5ccccc54)o3)o2)cc1[N+](=O)[O-] [G, (E)-N′-((5-(4-methyl-3-nitrophenyl)furan-2-yl)methylene)naphtho[2,1-b]furan-2-carbohydrazide]

pIC50 (HeLa cell line): 5.54
Compound: O=C(N/N=C/c1ccc(-c2ccc([N+](=O)[O-])cc2)o1)c1cc2c(ccc3ccccc32)o1 [Compound F, (E)-N′-((5-(4-nitrophenyl)furan-2-yl)methylene)naphtho[2,1-b]furan-2-carbohydrazide]

pIC50 (HeLa cell line): 5.58
Compound: Cc1c(/C=N/NC(=O)c2cc3c(ccc4ccccc43)o2)c2ccccc2n1CC#N [C, (E)-N′-((1-(cyanomethyl)-2-methyl-1H-indol-3-yl)methylene)naphtho[2,1-b]furan-2-carbohydrazide]

pIC50 (HeLa cell line): 5.58
Compound: O=C(N/N=C/c1ccc(-c2cccc(Cl)c2Cl)o1)c1cc2c(ccc3ccccc32)o1 [E]

pIC50 (HeLa cell line): 5.65
Compound: O=C(N/N=C/c1ccc(-c2ccc(Br)cc2)o1)c1cc2c(ccc3ccccc32)o1 [D]

pIC50 (HeLa cell line): 5.71
Compound: C=CCn1c(C)c(/C=N/NC(=O)c2cc3c(ccc4ccccc43)o2)c2ccccc21 [B, (E)-N′-((1-allyl-2-methyl-1H-indol-3-yl)methylene)naphtho[2,1-b]furan-2-carbohydrazide]

pIC50 (HeLa cell line): 6.36
Compound: Cc1c(/C=N/NC(=O)c2cc3c(ccc4ccccc43)o2)c2ccccc2n1C [A]
decrease of anti-proliferative activity compared with STK899704 (HeLa cell line): two times decreased
